Measurements published in the kinase profiling compilation of Christmann-Franck et al. (2016).

Legend:
Assay in all cases: radiometric filter-binding kinase assay
RPS6KA5 KD1 KD2 (human) = RPS6KA5 KD1 KD2 (human) (UniProt O75582)
SRC (human) = SRC (human) (UniProt P12931)
PRKCA (human) = PRKCA (human) (UniProt P17252)
HIPK1 (human) = HIPK1 (human) (UniProt Q86Z02)
NUAK1 (human) = NUAK1 (human) (UniProt O60285)
[1] = system: SGK1 (human), O00141 [S422D]
MARK4 (human) = MARK4 (human) (UniProt Q96L34)
TAOK1 (human) = TAOK1 (human) (UniProt Q7L7X3); details: compound 1.0 µM
PLK1 (human) = PLK1 (human) (UniProt P53350)
GCK (human) = GCK (human) (UniProt Q12851)
CDK2 CCNA2 (human) = CDK2 CCNA2 (human) (UniProt P20248+P24941)
EEF2K (human) = EEF2K (human) (UniProt O00418)
FLT1 (human) = FLT1 (human) (UniProt P17948)
MAPK3 (human) = MAPK3 (human) (UniProt P27361)
ERBB4 (human) = ERBB4 (human) (UniProt Q15303)
CLK2 (human) = CLK2 (human) (UniProt P49760); details: compound 1.0 µM
MAP3K5 (human) = MAP3K5 (human) (UniProt Q99683); details: compound 1.0 µM
MAPK1 (human) = MAPK1 (human) (UniProt P28482)
MAP3K1 (human) = MAP3K1 (human) (UniProt Q13233)
PAK6 (human) = PAK6 (human) (UniProt Q9NQU5)
NTRK1 (human) = NTRK1 (human) (UniProt P04629)
DAPK1 (human) = DAPK1 (human) (UniProt P53355); details: compound 1.0 µM
CHEK2 (human) = CHEK2 (human) (UniProt O96017)
JAK2 JH1 JH2 (human) = JAK2 JH1 JH2 (human) (UniProt O60674)
EPHB4 (human) = EPHB4 (human) (UniProt P54760)
CHEK1 (human) = CHEK1 (human) (UniProt O14757)
RPS6KA3 KD1 KD2 (human) = RPS6KA3 KD1 KD2 (human) (UniProt P51812)
MST4 (human) = MST4 (human) (UniProt Q9P289)
RPS6KA1 KD1 KD2 (human) = RPS6KA1 KD1 KD2 (human) (UniProt Q15418)
BRSK2 (human) = BRSK2 (human) (UniProt Q8IWQ3)
PRKCZ (human) = PRKCZ (human) (UniProt Q05513)
MARK3 (human) = MARK3 (human) (UniProt P27448)
AURKA (human) = AURKA (human) (UniProt O14965)
STK3 (human) = STK3 (human) (UniProt Q13188)
HIPK3 (human) = HIPK3 (human) (UniProt Q9H422)
HIPK3 (human), sequence (Q9H422 whole entry, looked up): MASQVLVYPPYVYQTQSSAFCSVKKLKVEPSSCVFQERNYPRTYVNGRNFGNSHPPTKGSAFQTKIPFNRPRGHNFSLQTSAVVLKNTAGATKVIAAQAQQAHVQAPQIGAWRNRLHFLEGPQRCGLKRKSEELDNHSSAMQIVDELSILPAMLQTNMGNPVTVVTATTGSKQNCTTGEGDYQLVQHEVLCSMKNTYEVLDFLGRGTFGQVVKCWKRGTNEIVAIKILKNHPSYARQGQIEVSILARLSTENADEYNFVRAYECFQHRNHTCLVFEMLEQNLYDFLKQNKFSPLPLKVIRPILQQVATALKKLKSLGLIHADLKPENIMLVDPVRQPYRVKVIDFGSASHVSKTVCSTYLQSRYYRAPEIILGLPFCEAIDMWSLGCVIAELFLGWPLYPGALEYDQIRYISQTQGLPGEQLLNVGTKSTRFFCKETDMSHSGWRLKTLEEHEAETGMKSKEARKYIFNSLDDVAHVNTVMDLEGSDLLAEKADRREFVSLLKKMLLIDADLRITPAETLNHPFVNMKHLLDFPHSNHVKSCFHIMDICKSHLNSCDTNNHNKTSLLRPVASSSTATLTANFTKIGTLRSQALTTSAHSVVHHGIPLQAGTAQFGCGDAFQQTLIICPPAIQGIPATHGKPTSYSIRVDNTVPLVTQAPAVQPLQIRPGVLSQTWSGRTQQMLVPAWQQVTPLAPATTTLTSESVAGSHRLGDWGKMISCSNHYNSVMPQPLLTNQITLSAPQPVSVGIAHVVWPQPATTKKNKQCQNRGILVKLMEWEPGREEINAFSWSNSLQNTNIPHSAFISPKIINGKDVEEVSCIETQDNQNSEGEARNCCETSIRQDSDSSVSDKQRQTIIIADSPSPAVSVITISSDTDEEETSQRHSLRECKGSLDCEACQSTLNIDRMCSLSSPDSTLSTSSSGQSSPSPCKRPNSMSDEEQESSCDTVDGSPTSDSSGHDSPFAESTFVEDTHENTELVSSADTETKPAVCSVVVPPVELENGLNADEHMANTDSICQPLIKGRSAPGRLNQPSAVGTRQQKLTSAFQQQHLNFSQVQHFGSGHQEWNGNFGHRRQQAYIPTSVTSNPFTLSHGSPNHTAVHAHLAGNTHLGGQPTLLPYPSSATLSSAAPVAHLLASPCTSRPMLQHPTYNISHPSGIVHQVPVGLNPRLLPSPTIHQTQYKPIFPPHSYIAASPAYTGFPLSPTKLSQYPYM

EEF2K (human), sequence (O00418 whole entry, looked up): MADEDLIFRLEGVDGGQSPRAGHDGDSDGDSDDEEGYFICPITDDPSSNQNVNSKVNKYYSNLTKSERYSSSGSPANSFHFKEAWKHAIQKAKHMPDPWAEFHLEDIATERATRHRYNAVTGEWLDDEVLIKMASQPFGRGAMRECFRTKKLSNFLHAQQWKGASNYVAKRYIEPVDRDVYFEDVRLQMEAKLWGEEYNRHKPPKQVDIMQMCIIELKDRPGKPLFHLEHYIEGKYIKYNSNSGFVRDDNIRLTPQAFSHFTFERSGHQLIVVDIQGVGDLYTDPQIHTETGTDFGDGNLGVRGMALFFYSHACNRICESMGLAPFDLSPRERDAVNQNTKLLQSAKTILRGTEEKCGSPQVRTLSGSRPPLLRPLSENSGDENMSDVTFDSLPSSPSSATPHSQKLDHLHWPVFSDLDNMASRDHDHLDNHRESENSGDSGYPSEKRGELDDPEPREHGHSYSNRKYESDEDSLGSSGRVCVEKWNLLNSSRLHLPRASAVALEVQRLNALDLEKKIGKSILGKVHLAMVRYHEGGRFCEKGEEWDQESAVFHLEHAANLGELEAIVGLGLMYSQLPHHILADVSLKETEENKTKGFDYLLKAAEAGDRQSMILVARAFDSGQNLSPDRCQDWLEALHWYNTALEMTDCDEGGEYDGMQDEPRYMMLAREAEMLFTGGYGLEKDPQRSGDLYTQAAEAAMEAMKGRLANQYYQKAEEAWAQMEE
CHEK1 (human), sequence (O14757 whole entry, looked up): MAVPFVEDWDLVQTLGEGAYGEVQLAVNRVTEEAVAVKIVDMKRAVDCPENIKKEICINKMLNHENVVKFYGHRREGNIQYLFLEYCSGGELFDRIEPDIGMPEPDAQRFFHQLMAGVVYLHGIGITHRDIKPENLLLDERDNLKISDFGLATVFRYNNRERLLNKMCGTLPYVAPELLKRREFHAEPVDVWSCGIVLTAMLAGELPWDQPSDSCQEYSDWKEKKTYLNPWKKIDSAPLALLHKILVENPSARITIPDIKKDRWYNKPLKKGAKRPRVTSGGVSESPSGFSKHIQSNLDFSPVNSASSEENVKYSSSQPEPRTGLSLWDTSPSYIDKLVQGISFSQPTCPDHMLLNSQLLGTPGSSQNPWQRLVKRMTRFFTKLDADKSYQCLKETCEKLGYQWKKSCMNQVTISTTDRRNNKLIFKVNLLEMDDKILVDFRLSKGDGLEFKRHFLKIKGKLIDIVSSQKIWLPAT
STK3 (human), sequence (Q13188 whole entry, looked up): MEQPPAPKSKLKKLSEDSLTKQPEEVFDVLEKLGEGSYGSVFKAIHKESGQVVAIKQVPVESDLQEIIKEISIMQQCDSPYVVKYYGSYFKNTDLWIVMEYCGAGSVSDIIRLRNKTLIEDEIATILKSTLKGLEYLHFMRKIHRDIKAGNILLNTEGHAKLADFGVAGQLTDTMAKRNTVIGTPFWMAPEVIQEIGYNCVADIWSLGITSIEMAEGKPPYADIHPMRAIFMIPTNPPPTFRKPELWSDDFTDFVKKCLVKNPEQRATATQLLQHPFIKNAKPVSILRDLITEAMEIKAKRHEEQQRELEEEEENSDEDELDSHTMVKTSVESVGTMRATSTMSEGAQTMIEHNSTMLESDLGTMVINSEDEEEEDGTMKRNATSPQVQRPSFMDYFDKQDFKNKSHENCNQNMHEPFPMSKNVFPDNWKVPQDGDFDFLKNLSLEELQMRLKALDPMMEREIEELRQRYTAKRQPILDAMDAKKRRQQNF
SRC (human), sequence (P12931 whole entry, looked up): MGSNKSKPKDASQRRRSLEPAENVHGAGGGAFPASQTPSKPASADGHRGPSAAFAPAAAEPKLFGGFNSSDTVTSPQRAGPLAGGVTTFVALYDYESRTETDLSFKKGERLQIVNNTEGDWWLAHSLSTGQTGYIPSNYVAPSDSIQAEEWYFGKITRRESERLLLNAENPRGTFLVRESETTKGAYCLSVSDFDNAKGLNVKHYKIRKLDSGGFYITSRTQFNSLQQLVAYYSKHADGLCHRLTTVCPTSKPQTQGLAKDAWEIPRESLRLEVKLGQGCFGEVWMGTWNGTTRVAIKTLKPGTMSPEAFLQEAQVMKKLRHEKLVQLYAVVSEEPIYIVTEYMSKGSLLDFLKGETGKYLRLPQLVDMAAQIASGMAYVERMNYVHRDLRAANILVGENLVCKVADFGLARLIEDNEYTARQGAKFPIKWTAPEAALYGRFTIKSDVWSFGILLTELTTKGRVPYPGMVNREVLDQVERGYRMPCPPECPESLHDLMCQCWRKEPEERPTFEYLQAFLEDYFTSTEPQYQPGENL
GCK (human), sequence (Q12851 whole entry, looked up): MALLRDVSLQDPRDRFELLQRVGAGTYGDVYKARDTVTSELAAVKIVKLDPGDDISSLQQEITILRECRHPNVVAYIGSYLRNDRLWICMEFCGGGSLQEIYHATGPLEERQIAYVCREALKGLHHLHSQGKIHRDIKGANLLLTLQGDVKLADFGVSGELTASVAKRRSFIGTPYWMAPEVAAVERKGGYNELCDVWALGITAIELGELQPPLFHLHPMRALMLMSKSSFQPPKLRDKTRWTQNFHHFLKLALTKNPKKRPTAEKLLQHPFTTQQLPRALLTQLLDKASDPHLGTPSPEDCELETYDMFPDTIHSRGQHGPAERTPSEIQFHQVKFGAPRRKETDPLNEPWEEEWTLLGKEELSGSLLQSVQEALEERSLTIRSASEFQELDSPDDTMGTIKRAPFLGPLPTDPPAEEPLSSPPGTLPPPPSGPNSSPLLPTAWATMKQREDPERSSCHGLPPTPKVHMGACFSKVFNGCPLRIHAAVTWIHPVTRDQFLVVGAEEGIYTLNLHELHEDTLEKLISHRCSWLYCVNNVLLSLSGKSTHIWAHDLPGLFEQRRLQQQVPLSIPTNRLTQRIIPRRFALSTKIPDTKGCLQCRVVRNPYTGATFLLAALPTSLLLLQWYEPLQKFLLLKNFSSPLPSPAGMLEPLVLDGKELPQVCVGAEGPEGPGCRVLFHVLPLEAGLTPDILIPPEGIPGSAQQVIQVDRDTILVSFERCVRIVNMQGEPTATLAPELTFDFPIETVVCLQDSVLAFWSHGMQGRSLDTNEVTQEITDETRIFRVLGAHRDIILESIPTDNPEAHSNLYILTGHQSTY
PAK6 (human), sequence (Q9NQU5 whole entry, looked up): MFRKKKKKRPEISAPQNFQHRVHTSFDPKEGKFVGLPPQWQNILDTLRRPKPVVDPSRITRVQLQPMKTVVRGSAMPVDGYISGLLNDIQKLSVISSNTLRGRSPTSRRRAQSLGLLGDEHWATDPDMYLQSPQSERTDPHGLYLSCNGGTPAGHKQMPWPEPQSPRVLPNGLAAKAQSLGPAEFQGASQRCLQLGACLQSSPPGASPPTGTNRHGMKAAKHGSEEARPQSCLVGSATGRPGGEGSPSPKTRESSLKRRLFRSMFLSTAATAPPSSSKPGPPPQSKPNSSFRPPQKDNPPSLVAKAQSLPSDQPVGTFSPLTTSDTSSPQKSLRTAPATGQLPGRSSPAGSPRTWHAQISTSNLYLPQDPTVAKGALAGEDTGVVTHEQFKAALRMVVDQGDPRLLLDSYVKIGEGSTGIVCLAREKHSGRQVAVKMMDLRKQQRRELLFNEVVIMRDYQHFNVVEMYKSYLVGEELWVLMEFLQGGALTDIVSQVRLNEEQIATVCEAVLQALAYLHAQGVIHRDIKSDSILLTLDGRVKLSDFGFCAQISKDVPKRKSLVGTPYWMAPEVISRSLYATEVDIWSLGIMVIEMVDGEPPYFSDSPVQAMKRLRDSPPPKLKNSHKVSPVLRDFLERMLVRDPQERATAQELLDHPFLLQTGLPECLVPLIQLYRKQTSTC

With `O=c1c(O)c(-c2ccc(O)c(O)c2)oc2cc(O)c(O)c(O)c12` the residual activity (RPS6KA5 KD1 KD2 (human); compound 1.0 µM) was 88%, the residual activity (RPS6KA5 KD1 KD2 (human); compound 10.0 µM) was 38% and the residual activity (SRC (human); compound 1.0 µM) was 38%. It also gave a residual activity (SRC (human); compound 10.0 µM) of 25%, a residual activity (PRKCA (human); compound 1.0 µM) of 99% and a residual activity (PRKCA (human); compound 10.0 µM) of 80%. It also gave a residual activity (HIPK1 (human); compound 1.0 µM) of 93%, a residual activity (HIPK1 (human); compound 10.0 µM) of 11% and a residual activity (NUAK1 (human); compound 1.0 µM) of 33%. The residual activity (NUAK1 (human); compound 10.0 µM) was 12%, the residual activity ([1]; compound 1.0 µM) was 87% and the residual activity ([1]; compound 10.0 µM) was 24%. It also gave a residual activity (MARK4 (human); compound 1.0 µM) of 34%, a residual activity (MARK4 (human); compound 10.0 µM) of 20% and a residual activity (TAOK1 (human)) of 94%. It also gave a residual activity (PLK1 (human); compound 1.0 µM) of 107%, a residual activity (PLK1 (human); compound 10.0 µM) of 23% and a residual activity (GCK (human); compound 1.0 µM) of 93%. For the same compound, the residual activity (GCK (human); compound 10.0 µM) was 23%, the residual activity (CDK2 CCNA2 (human); compound 1.0 µM) was 89% and the residual activity (CDK2 CCNA2 (human); compound 10.0 µM) was 32%. The residual activity (EEF2K (human); compound 1.0 µM) was 110%, the residual activity (EEF2K (human); compound 10.0 µM) was 109% and the residual activity (FLT1 (human); compound 1.0 µM) was 27%. For the same compound, the residual activity (FLT1 (human); compound 10.0 µM) was 7%, the residual activity (MAPK3 (human); compound 1.0 µM) was 101% and the residual activity (MAPK3 (human); compound 10.0 µM) was 54%. It also gave a residual activity (ERBB4 (human); compound 1.0 µM) of 109%, a residual activity (ERBB4 (human); compound 10.0 µM) of 44% and a residual activity (CLK2 (human)) of 58%. The residual activity (MAP3K5 (human)) was 118%, the residual activity (MAPK1 (human); compound 1.0 µM) was 107% and the residual activity (MAPK1 (human); compound 10.0 µM) was 105%. It also gave a residual activity (MAP3K1 (human); compound 1.0 µM) of 67%, a residual activity (MAP3K1 (human); compound 10.0 µM) of 74% and a residual activity (PAK6 (human); compound 1.0 µM) of 58%. It also gave a residual activity (PAK6 (human); compound 10.0 µM) of 60%, a residual activity (NTRK1 (human); compound 1.0 µM) of 92% and a residual activity (NTRK1 (human); compound 10.0 µM) of 29%. For the same compound, the residual activity (DAPK1 (human)) was 95%, the residual activity (CHEK2 (human); compound 1.0 µM) was 48% and the residual activity (CHEK2 (human); compound 10.0 µM) was 5%. It also gave a residual activity (JAK2 JH1 JH2 (human); compound 1.0 µM) of 91%, a residual activity (JAK2 JH1 JH2 (human); compound 10.0 µM) of 13% and a residual activity (EPHB4 (human); compound 1.0 µM) of 90%. The residual activity (EPHB4 (human); compound 10.0 µM) was 56%, the residual activity (CHEK1 (human); compound 1.0 µM) was 92% and the residual activity (CHEK1 (human); compound 10.0 µM) was 32%. The residual activity (RPS6KA3 KD1 KD2 (human); compound 1.0 µM) was 22%, the residual activity (RPS6KA3 KD1 KD2 (human); compound 10.0 µM) was 12% and the residual activity (MST4 (human); compound 1.0 µM) was 87%. It also gave a residual activity (MST4 (human); compound 10.0 µM) of 58%, a residual activity (RPS6KA1 KD1 KD2 (human); compound 1.0 µM) of 51% and a residual activity (RPS6KA1 KD1 KD2 (human); compound 10.0 µM) of 15%. The residual activity (BRSK2 (human); compound 1.0 µM) was 71%, the residual activity (BRSK2 (human); compound 10.0 µM) was 13% and the residual activity (PRKCZ (human); compound 1.0 µM) was 62%. It also gave a residual activity (PRKCZ (human); compound 10.0 µM) of 20%, a residual activity (MARK3 (human); compound 1.0 µM) of 51% and a residual activity (MARK3 (human); compound 10.0 µM) of 6%. For the same compound, the residual activity (AURKA (human); compound 1.0 µM) was 95%, the residual activity (AURKA (human); compound 10.0 µM) was 28% and the residual activity (STK3 (human); compound 1.0 µM) was 58%. The residual activity (STK3 (human); compound 10.0 µM) was 9%, the residual activity (HIPK3 (human); compound 1.0 µM) was 88% and the residual activity (HIPK3 (human); compound 10.0 µM) was 55%.
